Consider eight compounds from patent EP0170611A1, “Process for protecting keratinic material against deterioration by keratin devouring insects” (priority 1984, dated 1986).

Assay [1] deals with Kleidermotte Tineola bisselliella Hum. Nature of the assay: Moth-proofing test (feeding protection, SNV 195901) on wool treated in the exhaust bath, Example 4. The format is in vivo. Particulars: 15 larvae, 14 days, 28°C, 65 % r.h. As for the experimental part:
(§1) Von den zu prüfenden Verbindungen Nr. 101, 102, 201, 203, 205, 301 und 302 werden Stammlösungen durch Auflösung von jeweils 50 mg der Wirksubstanz in 25 ml Aethylenglykolmonoäthyläther bereitet.
(§2) 3 g schwere, gut vorgenetzte Wollgewebstücke werden in eine 30°C warme wässrige Flotte eingebracht, die folgende Bestandteile enthält: • x ppm, bezogen auf das Wollgewicht, der jeweils zu prüfenden Verbindung (eine entsprechende Menge der oben beschriebenen Stammlösung wird der Flotte zugegeben). • 1 X, bezogen auf das Wollgewicht, 80%-ige Essigsäure. • 4 X, bezogen auf das Wollgewicht, Ammoniumsulfat. • 0,5 g/1 Flotte eines Netz- und Dispergiermittels.
(§3) Die Temperatur der Flotte wird innerhalb 20 Minuten auf 98°C gesteigert und 60 Minuten bei dieser Temperatur belassen. Nach dem Abkühlen werden die Muster einzeln mit Wasser gespült und bei Raumtemperatur getrocknet.
(§4) Die mit den zu prüfenden Verbindungen ausgerüsteten trockenen Wollmuster werden der Mottenechtheitsprüfung (Frassschutz gegen die Kleidermotte Tineola bisselliella Hum.) sowie der Echtheitsprüfung gegen Larven des Pelzkäfers (Attagenus piceus Oliv.) und Teppichkäfers (Anthrenus flavipes var. seminiveus) gemäss der Vorschrift des Schweizer Normenverbandes SNV 195901 unterworfen.
(§5) Es werden jeweils Larven von Tineola und Larven von Anthrenus und 6 bis 7 Wochen alte Larven von Attagenus zur Prüfung verwendet.
(§6) Aus dem behandelten Wollflanellmuster werden Stücke gleicher Grösse ausgeschnitten und 14 Tage lang bei konstanter Temperatur (28°C) und konstanter relativer Luftfeuchtigkeit (65 %) dem Angriff (Frass) von je 15 Larven des entsprechenden Schädlings ausgesetzt. Die Beurteilung für alle 3 Schädlinge erfolgt nach dem Gewichtsverlust des Wollmusters.
(§7) .Aus der nachfolgenden Tabelle 1 ist für die geprüften Verbindungen die jeweilige Einsatzkonzentration (in ppm, bezogen auf das Wollgewicht) und der durch den Schädlingsfrass verursachte Gewichtsverlust (in mg) zu entnehmen: […]

Assay [2] deals with Larven des Pelzkäfers (Attagenus piceus Oliv.). The experiment in a line: Fastness test against fur beetle larvae (SNV 195901) on wool treated in the exhaust bath, Example 4. Type of assay: in vivo. Particulars: 15 larvae, 14 days, 28°C, 65 % r.h. As for the experimental part: as §1, §2, §3, §4, §5, §6, §7
Assay [3] deals with Larven des Teppichkäfers (Anthrenus flavipes var. seminiveus). Nature of the assay: Fastness test against carpet beetle larvae (SNV 195901) on wool treated in the exhaust bath, Example 4. Type of assay: in vivo. Particulars: 15 larvae, 14 days, 28°C, 65 % r.h. How it is done:
as §1, §2, §3, §4, §5, §6, §7

Assay [4] deals with Kleidermotte Tineola bisselliella Hum. The experiment in a line: Moth-proofing test (SNV 195901) on wool treated by pad (Foulard) application, Example 5. The format is in vivo. Particulars: 15 larvae, 14 days, 28°C, 65 % r.h.
Source text: as §4, §5, §6
(§8) 12,5 ml der jeweiligen, die zu prüfenden Verbindungen Nr. 101, 102, 201, 203, 205, 301 und 302 enthaltenden Stammlösung gemäss Beispiel 4 werden mit Aethylenglykolmonoäthyläther, der 1 g/1 eines Netz- und Dispergiermittels enthält, verdünnt. Die'Verdünnung erfolgt in der Weise, dass in der erhaltenen Foulardflotte die Konzentration der jeweils zu prüfenden Verbindung so eingestellt ist, dass auf dem Wollgewebe nach dem foulardieren x ppm des jeweiligen Wirkstoffes vorhanden sind (siehe Tabelle 2). Jeweils 3 ml der erhaltenen Lösung werden in eine Kristallisierschale gegeben. Darin wird eine geköderte Rondelle aus Wollgewebe mit Hilfe einer Pinzette ca. 3 Sekunden lang benetzt. Die feuchten Rondellen werden dann zwischen 2 Aluminiumfolien foulardiert, und zwar derart, dass die abgequetschten Rondellen je 100 X, bezogen auf ihr Gewicht, an Flotte aufgenommen haben. Die feuchten Rondellen werden an der Luft getrocknet und den gleichen biologischen Prüfungen unterworfen, die in Beispiel 4 beschrieben sind. Die Ergebnisse sind in der nachfolgenden Tabelle 2 zusammengefassst: […]

The test system of assay [5] is Larven des Pelzkäfers (Attagenus piceus Oliv.). The experiment in a line: Fastness test against fur beetle larvae (SNV 195901) on wool treated by pad (Foulard) application, Example 5. Type of assay: in vivo. Particulars: 15 larvae, 14 days, 28°C, 65 % r.h.
Source text: as §4, §5, §6, §8

For assay [6], the system named is Larven des Teppichkäfers (Anthrenus flavipes var. seminiveus). The experiment in a line: Fastness test against carpet beetle larvae (SNV 195901) on wool treated by pad (Foulard) application, Example 5. The settings on record: 15 larvae, 14 days, 28°C, 65 % r.h. Type of assay: in vivo.
Source text: as §4, §5, §6, §8

In assay [7] the test system is die in Beispiel 4 genannten keratinfressenden Schädlinge. The experiment in a line: Protection of wool articles treated in a dry-cleaning liquor, Example 6. The format is in vivo, Tineola bisselliella, Attagenus piceus, Anthrenus flavipes. The settings on record: 10%-ige solution diluted 1:200 by volume in dry-cleaning solvent; wool spun to ca. 100 % solvent content, dried. From the text:
Beispiel 6: Es wird jeweils eine 10%-ige Lösung der Verbindungen Nr. 101, 201, 202 und 301 in Aethylenglykolmonomethyläther hergestellt. Ein Volumenteil dieser Lösung wird mit 200 Volumen- 'teilen eines zur Trockenreinigung geeigneten Lösungsmittels, z.B. einer passenden Benzinfraktion oder Perchloräthylen, verdünnt. Gewünschtenfalls können noch reinigungsfördernde Zusätze beigefügt werden. Wollartikel werden nun wie üblich in diesen Reinigungsflüssigkeiten behandelt und anschliessend auf einen Lösungsmittelgehalt von ca. 100 % des Wollgewichtes abgeschleudert.

Assay [8] has the same test system. Nature of the assay: Protection of wool articles treated by spray application, Example 7. The format is in vivo, Tineola bisselliella, Attagenus piceus, Anthrenus flavipes. Particulars: 0,5%-ige solution sprayed, 2 x 15 g/m^2; about 400 ppm active on the material. From the text: Beispiel 7: Es wird jeweils eine 0,5%-ige Lösung der Verbindungen Nr. 101, 201, 202 und 301 in Methylenchlorid, Trichloräthylen oder einer tiefsiedenden Benzinfraktion angesetzt. Wollartikel werden mit Hilfe einer üblichen Sprüheinrichtung mit diesen Lösungen besprüht, so dass 2 x 15 g/m^2 an Wirkstofflösung appliziert werden. Bei einem Ausnützungseffekt des Aerosols von 30 % befinden sich dann etwa 400 ppm der jeweiligen Wirkstoffverbindung auf dem Material.

The mark [9] stands for this setting: Einsatzkonzentration 7,5 ppm on wool weight.
The mark [10] stands for this setting: Einsatzkonzentration 30 ppm on wool weight.
Where [11] appears, read: Einsatzkonzentration 125 ppm on wool weight.
The mark [12] stands for this setting: Einsatzkonzentration 7,5 ppm on wool.
[13] abbreviates: Einsatzkonzentration 15 ppm on wool.
[14] abbreviates: Einsatzkonzentration 125 ppm on wool.
The mark [15] stands for this setting: Einsatzkonzentration 300 ppm on wool weight.
Setting [16] is: Einsatzkonzentration 30 ppm on wool.
[17] abbreviates: Einsatzkonzentration 250 ppm on wool.

As to `CC1(C)C(C=C(Cl)Cl)C1C(=O)OCc1cccc(Oc2ccccc2)c1` (racemic) [Verbindung 201, (+)-cis-2,2-Dimethyl-3-(2,2-dichlorvinyl)-cyclopropancarbonsäure-3-phenoxybenzylester], the Gewichtsverlust in assay [1] (setting [9]) is reported as 1,7 mg; in assay [2] (setting [10]), 4,3 mg; in assay [3] (setting [11]), 18,9 mg; in assay [4] (setting [12]), 1,9 mg; in assay [5] (setting [13]), 3,7 mg; in assay [6] (setting [14]), 1,2 mg. Further, the “Schutz gegen keratinfressende Schädlinge” value is “hervorragend gegen die in Beispiel 4 genannten keratinfressenden Schädlinge geschützt” in assay [7] and “gegen die in Beispiel 4 genannten keratinfressenden Schädlinge geschützt” in assay [8].
As to `CC#CC(OC(=O)[C@H]1[C@H](C=C(Cl)Cl)C1(C)C)c1cccc(Oc2ccccc2)c1` (relative stereo) [Verbindung 102, (+)-trans-2,2-Dimethyl-3-(2,2-dichlorvinyl)-cyclopropancarbonsäure-3-phenoxy-a-propin-l-yl-benzylester], the Gewichtsverlust in assay [1] (setting [10]) is reported as 2,6 mg; in assay [2] (setting [10]) it was 43,4 mg; in assay [3] (setting [15]) it was 51,7 mg; in assay [4] (setting [16]), 4,4 mg; in assay [5] (setting [16]), 15,3 mg; in assay [6] (setting [17]), 27,1 mg.
With `CC1(C)C(C=C(Cl)Cl)C1C(=O)OC(C#N)c1cccc(Oc2ccccc2)c1` (mixture of isomers) [Verbindung 202, (±)-cis-2,2-Dimethyl-3-(2,2-dichlorvinyl)-cyclopropancarbonsäure-3-phenoxy-a-cyano-benzylester], the “Schutz gegen keratinfressende Schädlinge” value in assay [7] was “hervorragend gegen die in Beispiel 4 genannten keratinfressenden Schädlinge geschützt”; in assay [8] it was “gegen die in Beispiel 4 genannten keratinfressenden Schädlinge geschützt”.
On to `CC1(C)C(C=C(Cl)Cl)C1C(=O)OCc1cccc(Oc2ccccc2)c1` (mixture of isomers) [Verbindung 205, (+)-cis, trans-2,2-Dimethyl-3-(2,2-dichlorvinyl)-cyclopropancarbonsäure-3-phenoxybenzylester], for which the Gewichtsverlust in assay [1] (setting [9]) is listed as 5,8 mg; in assay [2] (setting [10]), 14,9 mg; in assay [3] (setting [11]), 29,2 mg; in assay [4] (setting [12]), 5,5 mg; in assay [5] (setting [13]), 32,5 mg; in assay [6] (setting [14]), 11,0 mg.
For the compound `CC#CC(OC(=O)C1C(C=C(Cl)Cl)C1(C)C)c1cccc(Oc2ccccc2)c1` (mixture of isomers) [Verbindung 101, (±)-cis-2,2-Dimethyl-3-(2,2-dichlorvinyl)-cyclopropancarbonsäure-3-phenoxy-α-propin-1-yl-benzylester], the Gewichtsverlust in assay [1] (setting [10]) was 1,2 mg; in assay [2] (setting [10]), 9,0 mg; in assay [3] (setting [15]) it was 9,2 mg; in assay [4] (setting [16]), 1,0 mg; in assay [5] (setting [16]), 2,0 mg; in assay [6] (setting [17]), 1,1 mg. The “Schutz gegen keratinfressende Schädlinge” value in assay [7] was “hervorragend gegen die in Beispiel 4 genannten keratinfressenden Schädlinge geschützt”; in assay [8] it was “gegen die in Beispiel 4 genannten keratinfressenden Schädlinge geschützt”.
Consider `CC1(C)[C@@H](C=C(Cl)Cl)[C@@H]1C(=O)OCc1cccc(Oc2ccccc2)c1` (relative stereo) [Verbindung 203, (+)-trans-2,2-Dimethyl-3-(2,2-dichlorvinyl)-cyclopropancarbonsäure-3-phenoxybenzylester], for which the Gewichtsverlust in assay [1] (setting [9]) was 26,9 mg; in assay [2] (setting [10]), 54,2 mg; in assay [3] (setting [11]) it was 68,3 mg; in assay [4] (setting [12]), 17,4 mg; in assay [5] (setting [13]) it was 39,3 mg; in assay [6] (setting [14]) it was 28,1 mg.
In the case of `CC1(C)C(C=C(Cl)Cl)C1C(=O)OC(C#N)c1ccc(F)c(Oc2ccccc2)c1` (mixture of isomers) [Verbindung 301, (±)-cis-2,2-Dimethyl-3-(2,2-dichlorvinyl)-cyclopropancarbonsäure-3-phenoxy-4-fluor-a-cyanobenzylester], the Gewichtsverlust is on record as 0 mg in assay [1] (setting [9]); 11,4 mg in assay [2] (setting [9]); 14,9 mg in assay [3] (setting [11]); 0,8 mg in assay [5] (setting [12]); 0,1 mg in assay [6] (setting [14]). The “Schutz gegen keratinfressende Schädlinge” value in assay [7] was “hervorragend gegen die in Beispiel 4 genannten keratinfressenden Schädlinge geschützt”; in assay [8], “gegen die in Beispiel 4 genannten keratinfressenden Schädlinge geschützt”.
With `CC1(C)[C@@H](C=C(Cl)Cl)[C@@H]1C(=O)OC(C#N)c1ccc(F)c(Oc2ccccc2)c1` (relative stereo) [Verbindung 302, (+)-trans-2,2-Dimethyl-3-(2,2-dichlorvinyl)-cyclopropancarbonsäure-3-phenoxy-4-fluor-a-cyanobenzylester], the Gewichtsverlust in assay [1] (setting [9]) is on record as 0,4 mg; in assay [2] (setting [9]), 51,4 mg; in assay [3] (setting [11]) it was 48,0 mg; in assay [5] (setting [12]), 9,3 mg; in assay [6] (setting [14]), 16,3 mg.
